The source of these data is US8232288B2, “Substituted benzimidazoles, benzothiazoles and benzoxazoles” (Gruenenthal GmbH, priority 2009, dated 2012).

Experiment [1] concerns the target T1, B1R receptor of the rat (rB1R) (Rattus norvegicus, UniProt P97583).
T1 construct: expressed in transfected cells; host or cells: CHO K1 cells
T1 sequence (P97583 1-337): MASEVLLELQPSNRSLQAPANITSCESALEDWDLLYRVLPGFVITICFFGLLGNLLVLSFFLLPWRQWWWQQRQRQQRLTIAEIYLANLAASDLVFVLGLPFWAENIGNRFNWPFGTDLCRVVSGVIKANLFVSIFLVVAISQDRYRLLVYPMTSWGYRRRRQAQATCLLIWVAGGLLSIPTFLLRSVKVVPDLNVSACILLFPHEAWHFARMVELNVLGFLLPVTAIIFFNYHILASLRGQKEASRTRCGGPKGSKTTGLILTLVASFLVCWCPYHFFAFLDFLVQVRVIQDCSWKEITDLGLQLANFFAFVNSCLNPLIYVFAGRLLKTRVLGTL
As to the kind of experiment: Functional investigation on the bradykinin receptor 1 (B1R), FLIPR Ca2+ assay, rB1R cells. It counts as cell-based. An outline of the steps: (§1)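 Stably transfected CHO K1 cells expressing human or rat B1R were loaded with Fluo-4, and Ca2+ fluorescence was read on a FLIPR. Compound (10 μM) was added first to measure activation. After 10–20 min, agonist at EC80 was added (Lys-Des-Arg9-bradykinin for hB1R, Des-Arg9-bradykinin for rB1R) to give % inhibition. IC50 values came from concentration series.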

Experiment [2] has as its target T2, human B1R receptor (hB1R) (Homo sapiens, UniProt P46663).
T2 construct: expressed in transfected cells; host or cells: CHO K1 cells
T2 sequence (P46663 1-353): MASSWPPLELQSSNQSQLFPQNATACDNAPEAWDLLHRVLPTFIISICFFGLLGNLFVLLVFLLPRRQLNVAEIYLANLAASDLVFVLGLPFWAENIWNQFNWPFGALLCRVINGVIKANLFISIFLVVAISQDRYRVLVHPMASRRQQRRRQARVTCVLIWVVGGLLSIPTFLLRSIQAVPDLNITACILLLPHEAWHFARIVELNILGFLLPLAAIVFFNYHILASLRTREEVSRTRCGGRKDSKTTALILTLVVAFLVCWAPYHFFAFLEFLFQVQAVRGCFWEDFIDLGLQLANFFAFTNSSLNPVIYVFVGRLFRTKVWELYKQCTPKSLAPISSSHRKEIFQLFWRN
As to the kind of experiment: Functional investigation on the bradykinin receptor 1 (B1R), FLIPR Ca2+ assay, hB1R cells. It counts as cell-based. In short, it runs like this: as §1

The structures appear in SMILES notation.

Take `COc1cc(C)c(S(=O)(=O)N(C)Cc2nc3cccc(CN4CCC5(CC4)CCN(c4ccncc4)CC5)c3[nH]2)c(C)c1` [I_15, 4-methoxy-N,2,6-trimethyl-N-[[7-[(9-pyridin-4-yl-3,9-diazaspiro[5.5]undecan-3-yl)-methyl]-1H-benzoimidazol-2-yl]-methyl]-benzenesulfonic acid amide]: the inhibition – broadly, the change of the read-out against control, counted positive when it falls – at 10 µM was 103% in experiment [1] and 100% in experiment [2].
In the case of `COc1cc(C)c(S(=O)(=O)N(C)C(C)c2nc3cccc(C(=O)N4CCC5(CCN(Cc6[nH]cnc6C)CC5)CC4)c3[nH]2)c(C)c1` (stereo not drawn) [I_CC-35, 4-Methoxy-N,2,6-trimethyl-N-[1-[7-[9-[(5-methyl-3H-imidazol-4-yl)-methyl]-3,9-diazaspiro[5.5]undecane-3-carbonyl]-1H-benzoimidazol-2-yl]-ethyl]-benzenesulfonic acid amide], the inhibition at 10 µM in experiment [1] is 104%; in experiment [2], 68%.
On to `COc1cc(C)c(S(=O)(=O)N(C)Cc2nc3cccc(CC(=O)N4CCC5(CC4)CCN(c4ccncc4)CC5)c3[nH]2)c(C)c1` [I_21, 4-methoxy-N,2,6-trimethyl-N-[[7-[2-oxo-2-(9-pyridin-4-yl-3,9-diazaspiro[5.5]undecan-3-yl)-ethyl]-1H-benzoimidazol-2-yl]-methyl]-benzenesulfonic acid amide], for which the values for the inhibition at 10 µM in experiment [1] and in experiment [2] were 55% and 99%, respectively.
Consider `COc1cc(C)c(S(=O)(=O)N2CCCCC2c2nc3cccc(C(=O)N4CCC5(CC4)CCN(c4ccncc4)CC5)c3[nH]2)c(C)c1` (stereo not drawn) [I_18, [2-[1-[(4-methoxy-2,6-dimethyl-phenyl)sulfonyl]-piperidin-2-yl]-3H-benzoimidazol-4-yl]-(9-pyridin-4-yl-3,9-diazaspiro[5.5]undecan-3-yl)-methanone], for which the inhibition at 10 µM in experiment [1] was found to be 49%; in experiment [2] it was 97%.
Consider `COc1cc(C)c(C(=O)N(C)Cc2nc3cccc(C(=O)N4CCC5(CC4)CCN(c4ccncc4)C5)c3[nH]2)c(C)c1` [I_CC-24, 4-methoxy-N,2,6-trimethyl-N-[[7-(3-pyridin-4-yl-3,8-diazaspiro[4.5]decane-8-carbonyl)-1H-benzoimidazol-2-yl]-methyl]-benzamide], for which the inhibition at 10 µM in experiment [1] turned out to be 101%; in experiment [2] it was 98%.
Regarding `COc1cc(C)c(S(=O)(=O)N(C)Cc2nc3cccc(C(=O)N4CCC5(CCN(c6ccncc6)C5)C4)c3[nH]2)c(C)c1` (stereo not drawn) [I_10, 4-methoxy-N,2,6-trimethyl-N-[[7-(8-pyridin-4-yl-3,8-diazaspiro[4.4]nonane-3-carbonyl)-1H-benzoimidazol-2-yl]-methyl]-benzenesulfonic acid amide], the inhibition at 10 µM in experiment [1] worked out at 104%; in experiment [2] it was 100%.
Regarding `COc1cc(C)c(S(=O)(=O)N(C)C(C)c2nc3cccc(C(=O)N4CCC5(CCN(Cc6ccc(F)cc6Cl)CC5)CC4)c3[nH]2)c(C)c1` (stereo not drawn) [I_CC-39, N-[1-[7-[9-[(2-Chloro-4-fluoro-phenyl)-methyl]-3,9-diazaspiro[5.5]undecane-3-carbonyl]-1H-benzoimidazol-2-yl]-ethyl]-4-methoxy-N,2,6-trimethyl-benzenesulfonic acid amide], the inhibition at 10 µM in experiment [1] worked out at 95%; in experiment [2], 49%.
For `COc1cc(C)c(S(=O)(=O)N(C)C(C)c2nc3cccc(C(=O)N4CCC5(CCN(Cc6c(F)cccc6F)CC5)CC4)c3[nH]2)c(C)c1` (stereo not drawn) [I_CC-29, N-[1-[7-[9-[(2,6-Difluoro-phenyl)-methyl]-3,9-diazaspiro[5.5]undecane-3-carbonyl]-1H-benzoimidazol-2-yl]-ethyl]-4-methoxy-N,2,6-trimethyl-benzenesulfonic acid amide], the inhibition at 10 µM was 94% in experiment [1] and 84% in experiment [2].
In the case of `COc1cc(C)c(S(=O)(=O)N(C)Cc2nc3cccc(C(=O)N4CCC5(CC4)CC(c4ccncc4)=NO5)c3[nH]2)c(C)c1` [I_27, 4-methoxy-N,2,6-trimethyl-N-[[7-(3-pyridin-4-yl-1-oxa-2,8-diazaspiro[4.5]dec-2-ene-8-carbonyl)-1H-benzoimidazol-2-yl]-methyl]-benzenesulfonic acid amide], the inhibition at 10 µM amounted to 94% in experiment [1] and 93% in experiment [2].
As to `O=C1c2c(Cl)cccc2CN1Cc1nc2cccc(C(=O)N3CCC4(CC3)CCN(c3ccncc3)C4)c2[nH]1` [I_CC-13, 7-chloro-2-[[7-(3-pyridin-4-yl-3,8-diazaspiro[4.5]decane-8-carbonyl)-1H-benzoimidazol-2-yl]-methyl]-2,3-dihydro-isoindol-1-one], the inhibition at 10 µM turned out to be 49% in experiment [1] and 71% in experiment [2].
For `COc1cc(C)c(S(=O)(=O)N(C)C(C)c2nc3cccc(C(=O)N4CCC5(CCN(Cc6c[nH]cn6)CC5)CC4)c3[nH]2)c(C)c1` (stereo not drawn) [I_CC-25, N-[1-[7-[9-(1H-Imidazol-4-yl-methyl)-3,9-diazaspiro[5.5]undecane-3-carbonyl]-1H-benzoimidazol-2-yl]-ethyl]-4-methoxy-N,2,6-trimethyl-benzenesulfonic acid amide], the inhibition at 10 µM in experiment [1] was found to be 103%; in experiment [2], 58%.
Take `COc1cc(C)c(S(=O)(=O)N(C)C(C)c2nc3cccc(C(=O)N4CCC5(CCN(Cc6c(F)cccc6OC)CC5)CC4)c3[nH]2)c(C)c1` (stereo not drawn) [I_CC-34, N-[1-[7-[9-[(2-Fluoro-6-methoxy-phenyl)-methyl]-3,9-diazaspiro[5.5]undecane-3-carbonyl]-1H-benzoimidazol-2-yl]-ethyl]-4-methoxy-N,2,6-trimethyl-benzenesulfonic acid amide]: the values for the inhibition at 10 µM in experiment [1] and in experiment [2] were 86% and 91%, respectively.
